How the values were obtained:
[1] = stability to hydrolysis (boiling in deionized water, titration of liberated phosphorous acid); format: physicochemical
Method: The stability to hydrolysis was tested according to the process disclosed in DT-OS 2,144,181, pages 7/8. 5.0 g each of the respective phosphite were boiled for 20 and 60 minutes in 100 ml of deionized water. The mixture was then allowed to cool, filtered to remove residues, if any, and in the filtrate the liberated phosphorous acid was titrated with 0.1N KOH against bromophenol blue.
In the following table is indicated the degree of hydrolysis determined under the specified conditions as quotient of the actual consumption of KOH and the theoretically possible consumption with a complete hydrolysis.

[2] = dynamic heat stability (rolling stability) in PVC, discoloration of rough sheet; settings: 180° C, two roll mill, 0.5 part phosphite
Method: (§1) The parts in the following description are parts by weight.
(§2) Each time 100 parts of a mass polyvinyl chloride having a K value of 60 were intimately mixed with
0.2 part of 2-phenyl-indole,
3.0 parts of epoxidized soybean oil
0.3 part of stearyl stearate
0.5 part of glycerol monostearate and
(§3) 0.5 part of the respective phosphite of the invention.
To measure the dynamic heat stability (rolling stability) the mixtures were rolled on a two roll mill at 180° C. and with 20 revolutions per minute. At intervals of 10 minutes samples were taken from the rough sheet and the color of the samples was compared with the colors of a proper color chart. Rolling was continued until the rough sheet had turned black.
In the color chart used the individual notes have the following meaning:
4 = dark yellow-brown color

[3] = static heat stability (furnace stability) in PVC, time until black coloration; settings: heating cabinet with air circulation, 0.5 part phosphite
Method: as §1, §2
0.2 part of 2-phenyl-indole,
3.0 parts of epoxidized soybean oil
0.3 part of stearyl stearate
0.5 part of glycerol monostearate and
as §3
In order to measure the static heat stability (furnace stability) a rough sheet was prepared as described above and the sheet was rolled for a further 10 minutes at 180° C. Flat samples having a diameter of about 30 mm were punched out of the rough sheet removed from the mill and having a thickness of about 0.5 mm, the samples were wrapped in aluminum foil and heated to 180° C. in a heating cabinet with air circulation. At intervals of 10 minutes each a sample was taken from the cabinet and the color thereof was compared with that of the color chart.

[4] = 20 minutes boiling in deionized water
[5] = 60 minutes boiling in deionized water
[6] = boiling deionized water, 20 min

degree of hydrolysis after 20 minutes [1, 6]	degree of hydrolysis after 60 minutes ([1]; boiling deionized water, 1 h)	Compound	degree of hydrolysis after 20 minutes [1, 4]	degree of hydrolysis after 60 minutes [1, 5]	dynamic (rolling) stability, discoloration of rough sheet after a rolling time of 10' [2]	dynamic (rolling) stability, discoloration of rough sheet after a rolling time of 20' [2]	dynamic (rolling) stability, discoloration of rough sheet after a rolling time of 30' [2]	dynamic (rolling) stability, discoloration of rough sheet after a rolling time of 40' [2]	dynamic (rolling) stability, discoloration of rough sheet after a rolling time of 50' [2]	dynamic (rolling) stability, discoloration of rough sheet after a rolling time of 60' [2]	static (furnace) stability, black coloration at 180° C after [3]	dynamic (rolling) stability, discoloration of rough sheet after a rolling time of 70' [2]	dynamic (rolling) stability, discoloration of rough sheet after a rolling time of 80' [2]
–	–	CCCCCCCCCCCCCCCCCCOP1OCC2(CO1)COP(OCCCCCCCCCCCCCCCCCC)OC2 (stereo not drawn) [distearyl-pentaerthrityl-diphosphite, distearyl-pentaerythritol diphosphite, reference compound]	55 % of theory	68 % of theory	2-3	2-3	3	3	4	5	50 '	–	–
–	–	c1ccc(OP(Oc2ccccc2)Oc2ccccc2)cc1 [triphenyl phosphite, reference compound]	84 % of theory	100 % of theory	1	2	2-3	5	–	–	50 '	–	–
7 % of theory	11 % of theory	Di-behenyl-erythrityl diphosphite [Example 8]	–	–	1	1-2	1-2	2	3	4	60 '	5	–
7 % of theory	23 % of theory	Tri-behenyl-mannityl triphosphite [Example 5]	–	–	1	1-2	2	2	3	3	–	4	5
–	–	Tri-stearyl-dulcityl-triphosphite [Example 3]	–	–	1	1-2	2	3	4	5	60 '	–	–
5 % of theory	10 % of theory	Tri-stearyl-mannityl-triphosphite [Example 2]	–	–	1	1-2	2	2-3	3	3	–	4	4
–	–	Tristearyl-sorbityl diphosphite monophosphate [Example 25]	9 % of theory	–	–	–	–	–	–	–	–	–	–
–	–	distearyl-monododecyl-mercapto-sorbityl triphosphite [Example 23]	–	–	2	3	3	3	3-4	4	60 '	5	–
–	–	distearyl-sorbityl diphosphite [Example 10]	–	–	1	1-2	2	3	4	5	60 '	–	–
–	–	trisnonylphenyl phosphite [reference compound]	57 % of theory	92 % of theory	1	2	2-3	3	5	–	40 '	–	–

Compound	degree of hydrolysis after 20 minutes [1, 6]	degree of hydrolysis after 60 minutes ([1]; boiling deionized water, 1 h)	degree of hydrolysis after 20 minutes [1, 4]	degree of hydrolysis after 60 minutes [1, 5]	dynamic (rolling) stability, discoloration of rough sheet after a rolling time of 10' [2]	dynamic (rolling) stability, discoloration of rough sheet after a rolling time of 20' [2]	dynamic (rolling) stability, discoloration of rough sheet after a rolling time of 30' [2]	dynamic (rolling) stability, discoloration of rough sheet after a rolling time of 40' [2]	dynamic (rolling) stability, discoloration of rough sheet after a rolling time of 50' [2]	dynamic (rolling) stability, discoloration of rough sheet after a rolling time of 60' [2]	static (furnace) stability, black coloration at 180° C after [3]	dynamic (rolling) stability, discoloration of rough sheet after a rolling time of 70' [2]	dynamic (rolling) stability, discoloration of rough sheet after a rolling time of 80' [2]
Tri-behenyl-sorbityl triphosphite [Example 4]	10 % of theory	–	–	–	1	1-2	2	2	3	3	–	4	5
Tri-stearyl-sorbityl triphosphite [Example 1]	7 % of theory	17 % of theory	–	–	1	1-2	2	2-3	3	3	–	4	4
